SMILES strings stand for the structures.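 Protocol summary: plate cells (96-well), add compound at 5 concentrations, incubate 48 h, interpolate endpoints linearly. The concentration for 50% growth inhibition is given as GI50.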 Active and inactive are the calls of the source. Cut-off read from the data, not from the text of the source: active = GI50 up to about 1.1 µM and inactive = higher.

Some test systems named below: MDA-N; RXF 393; K562; UO-31; OVCAR-8; T47D; OVCAR-4; NCI/ADR-RES; LOX IMVI; COLO 205; NCI-H23; RPMI-8226; UACC-62; SK-MEL-2; 786-0; SW-620; KM12; HCC 2998; NCI-H522; OVCAR-3.
Holding throughout (test): growth of human tumour cells (NCI), 48 h

Regarding `N#C/C(=C\c1cc(O)c(O)c(O)c1)C(N)=O`, the GI50 is > 62.4 µM (inactive) in the test on MDA-N; > 100 µM (inactive) in the test with RXF 393; 62.2 µM (inactive) in the test with K562; > 74.1 µM (inactive) with UO-31; > 100 µM (inactive) with OVCAR-8; > 100 µM (inactive) in the test with T47D. In addition, the GI50 with OVCAR-4 is 74.8 µM (inactive); in the test on NCI/ADR-RES, > 93.1 µM (inactive); in the test with LOX IMVI, 41.3 µM (inactive); in the test on COLO 205 it was > 100 µM (inactive); in the test on NCI-H23, > 100 µM (inactive); in the test with RPMI-8226, > 100 µM (inactive). The GI50 in the test on UACC-62 was 72.6 µM (inactive); in the test with SK-MEL-2, > 100 µM (inactive); with 786-0 it was 54.6 µM (inactive); in the test on SW-620, > 84.5 µM (inactive); in the test with KM12 it was > 90.4 µM (inactive); with HCC 2998, > 100 µM (inactive). Moreover, the figures for the GI50 with NCI-H522 and in the test on OVCAR-3 were > 66.4 µM (inactive) and > 72.8 µM (inactive), respectively.
`Cc1cc2c(cc1Cl)SC(NNc1ccc([N+](=O)[O-])cc1)=NS2(=O)=O`: the GI50 in the test on MDA-N, in the test with RXF 393, in the test with K562, with UO-31, in the test on OVCAR-8 and in the test with T47D was > 10 µM (inactive) in each case. The GI50 in the test with OVCAR-4, with NCI/ADR-RES, with LOX IMVI, in the test with COLO 205, in the test on NCI-H23 and with RPMI-8226 was > 10 µM (inactive) in each case. Besides, the GI50 in the test on UACC-62, with SK-MEL-2, in the test on 786-0, with SW-620, in the test on KM12 and in the test with HCC 2998 was > 10 µM (inactive) each time. Further, the GI50 in the test with NCI-H522 and in the test on OVCAR-3 was > 10 µM (inactive) in each case.
`Cc1ccc(/C=N/Nc2cc(C)c3cccc(C)c3n2)s1`: the GI50 in the test with MDA-N is 8.89 µM (inactive); with RXF 393, 9.86 µM (inactive); with K562, 3.46 µM (inactive); in the test with UO-31, 5.79 µM (inactive); with OVCAR-8 it was 10.4 µM (inactive); in the test with T47D, 4.15 µM (inactive). The GI50 was 13.9 µM (inactive) with OVCAR-4; 2.99 µM (inactive) in the test with NCI/ADR-RES; 1.63 µM (inactive) in the test on LOX IMVI; 6.98 µM (inactive) in the test with COLO 205; 12.2 µM (inactive) in the test on NCI-H23; 6.67 µM (inactive) with RPMI-8226. Besides, the GI50 with UACC-62 is 17.9 µM (inactive); with SK-MEL-2, 16 µM (inactive); with 786-0, 2.74 µM (inactive); with SW-620 it was 8.15 µM (inactive); with KM12, 7.31 µM (inactive); with HCC 2998, 6.38 µM (inactive). The figures for the GI50 with NCI-H522 and in the test on OVCAR-3 were 2.81 µM (inactive) and 8.02 µM (inactive), respectively.
In the case of `Nc1ncnc2c1ccn2CC#CCO`, the GI50 in the test on MDA-N is > 100 µM (inactive); in the test on RXF 393, 97.3 µM (inactive); in the test with K562, > 100 µM (inactive); in the test with UO-31, > 100 µM (inactive); in the test on OVCAR-8 it was > 100 µM (inactive); in the test with T47D, > 100 µM (inactive). Further, the GI50 in the test on OVCAR-4, in the test with NCI/ADR-RES, with LOX IMVI, with COLO 205, with NCI-H23 and in the test on RPMI-8226 was > 100 µM (inactive) each time. The GI50 in the test with UACC-62, in the test with SK-MEL-2, in the test with 786-0, in the test with SW-620, with KM12 and with HCC 2998 was > 100 µM (inactive) throughout. The GI50 with NCI-H522 and with OVCAR-3 was > 100 µM (inactive) each time.
Consider `C#CCCOC(=O)CC1=C(C)/C(=C/c2ccc([S+](C)[O-])cc2)c2ccc(F)cc21` (stereo not given), for which the GI50 in the test with MDA-N is 6.67 µM (inactive); in the test on RXF 393, 21.4 µM (inactive); in the test on K562, 13.2 µM (inactive); in the test with UO-31, 15.5 µM (inactive); with OVCAR-8, 19.7 µM (inactive); with T47D, 20.1 µM (inactive). In addition, the GI50 with OVCAR-4 is 19.2 µM (inactive); with NCI/ADR-RES, 13.3 µM (inactive); in the test on LOX IMVI, 14.9 µM (inactive); in the test on COLO 205, 15.2 µM (inactive); in the test on NCI-H23 it was 22.2 µM (inactive); with RPMI-8226 it was 11 µM (inactive). Also, the GI50 in the test with UACC-62 is 13.6 µM (inactive); in the test on SK-MEL-2, 15.7 µM (inactive); in the test with 786-0, 19.8 µM (inactive); with SW-620 it was 14.3 µM (inactive); in the test with KM12 it was 10.8 µM (inactive); in the test on HCC 2998, 10.4 µM (inactive). The GI50 with NCI-H522 was 17.3 µM (inactive); with OVCAR-3 it was 15.4 µM (inactive).
With `Cc1c2cccc-2c(OCCO)cc2c3ccccc3n(C)c12`, the GI50 with MDA-N is 3.65 µM (inactive); with RXF 393, 5.57 µM (inactive); in the test on K562 it was 3.72 µM (inactive); with UO-31, 2.57 µM (inactive); in the test on OVCAR-8 it was 2.9 µM (inactive); in the test on T47D, 3.1 µM (inactive). For the same compound, the GI50 is 3.09 µM (inactive) in the test with OVCAR-4; 30.8 µM (inactive) in the test on NCI/ADR-RES; 2.77 µM (inactive) with LOX IMVI; 1.69 µM (inactive) in the test with COLO 205; 3.4 µM (inactive) in the test on NCI-H23; 2.81 µM (inactive) in the test on RPMI-8226. Also, the GI50 with UACC-62 was 4.7 µM (inactive); in the test with SK-MEL-2, 3.15 µM (inactive); in the test with 786-0, 3.37 µM (inactive); in the test with SW-620 it was 4.08 µM (inactive); in the test on KM12, 3.21 µM (inactive); in the test with HCC 2998, 3.64 µM (inactive). Moreover, the GI50 with NCI-H522 was 2.18 µM (inactive); in the test on OVCAR-3 it was 1.46 µM (inactive).
Regarding `CN(C)CC1CCC(CN(C)C)C1=O` (stereo not given), the GI50 in the test on MDA-N was 2.01 µM (inactive); in the test on RXF 393 it was 4.19 µM (inactive); with K562 it was 0.418 µM (active); in the test with UO-31, 7.67 µM (inactive); in the test with OVCAR-8, 3.31 µM (inactive); in the test on T47D, 1.39 µM (inactive). Also, the GI50 is 5.32 µM (inactive) with OVCAR-4; 23 µM (inactive) with NCI/ADR-RES; 4.54 µM (inactive) with LOX IMVI; 0.608 µM (active) with COLO 205; 4.05 µM (inactive) with NCI-H23; 0.541 µM (active) in the test with RPMI-8226. Also, the GI50 in the test on UACC-62 was 13.9 µM (inactive); in the test with SK-MEL-2, 14.1 µM (inactive); in the test with 786-0, 1.93 µM (inactive); in the test on SW-620, 0.873 µM (active); with KM12, 10.3 µM (inactive); in the test with HCC 2998 it was 18 µM (inactive). Further, the values for the GI50 in the test on NCI-H522 and in the test on OVCAR-3 were 0.114 µM (active) and 3.81 µM (inactive), respectively.
As for `CN(CCCN(C)Cc1ccc(Cl)c(Cl)c1)CCN1CCCC1`, the GI50 in the test on MDA-N was 4.32 µM (inactive); in the test on RXF 393, 15.1 µM (inactive); in the test on K562, 4.67 µM (inactive); with UO-31 it was 4.78 µM (inactive); with OVCAR-8 it was 29.5 µM (inactive); in the test on T47D, 29.9 µM (inactive). Further, the GI50 was 66.7 µM (inactive) in the test on OVCAR-4; > 66.5 µM (inactive) in the test with NCI/ADR-RES; 14.4 µM (inactive) with LOX IMVI; 9.35 µM (inactive) in the test with COLO 205; 26.5 µM (inactive) in the test on NCI-H23; 4.28 µM (inactive) in the test with RPMI-8226. Moreover, the GI50 in the test on UACC-62 is 1.85 µM (inactive); with SK-MEL-2, 11 µM (inactive); with 786-0 it was 13.5 µM (inactive); with SW-620, 19.7 µM (inactive); in the test with KM12, 30.7 µM (inactive); in the test with HCC 2998, 3.5 µM (inactive). Further, the figures for the GI50 with NCI-H522 and in the test on OVCAR-3 were 16 µM (inactive) and 60.3 µM (inactive), respectively.
Consider `CC1C/C(=N\N(C)C)C(C#N)(C#N)C1(C#N)C#N` (stereo not given), for which the GI50 in the test on MDA-N is 17.8 µM (inactive); in the test on RXF 393, 9.89 µM (inactive); in the test with K562, 2.35 µM (inactive); in the test on UO-31, 15.6 µM (inactive); in the test on OVCAR-8, 19.2 µM (inactive); in the test with T47D, 10.8 µM (inactive). For the same compound, the GI50 was 12.6 µM (inactive) in the test on OVCAR-4; 25.8 µM (inactive) in the test with NCI/ADR-RES; 7.14 µM (inactive) in the test with LOX IMVI; 1.82 µM (inactive) in the test with COLO 205; 20.5 µM (inactive) in the test with NCI-H23; 3.92 µM (inactive) in the test with RPMI-8226. Besides, the GI50 was 13.8 µM (inactive) in the test with UACC-62; 22.2 µM (inactive) in the test on SK-MEL-2; 3.7 µM (inactive) in the test with 786-0; 5.05 µM (inactive) in the test on SW-620; 27 µM (inactive) in the test on KM12; 17 µM (inactive) in the test on HCC 2998. Besides, the values for the GI50 in the test on NCI-H522 and in the test on OVCAR-3 were 1.93 µM (inactive) and 13.2 µM (inactive), respectively.
Take `O=C(Oc1cccc2cccnc12)c1cc2cc(CCl)ccc2oc1=O`: the GI50 with MDA-N is 16.1 µM (inactive); in the test with RXF 393, 17.3 µM (inactive); in the test on K562, 3.1 µM (inactive); with UO-31 it was 9.91 µM (inactive); in the test on OVCAR-8 it was 34 µM (inactive); in the test with T47D, 4.29 µM (inactive). The GI50 is 25.6 µM (inactive) in the test on OVCAR-4; 4.18 µM (inactive) in the test on NCI/ADR-RES; 25.3 µM (inactive) in the test with LOX IMVI; 6.3 µM (inactive) in the test on COLO 205; 8.39 µM (inactive) with NCI-H23; 4.94 µM (inactive) with RPMI-8226. For the same compound, the GI50 was 8.57 µM (inactive) with UACC-62; 17.6 µM (inactive) in the test on SK-MEL-2; 20.7 µM (inactive) in the test on 786-0; 4.56 µM (inactive) in the test on SW-620; 24 µM (inactive) in the test on KM12; 20.3 µM (inactive) with HCC 2998. The figures for the GI50 in the test with NCI-H522 and with OVCAR-3 were 2.18 µM (inactive) and 3.68 µM (inactive), respectively.

For the origin of these results see ChEMBL document CHEMBL1201862, “PubChem BioAssay data set” (2004).
